Test results taken from US11000033B2, “Ketone or oxime compound, and herbicide” (NISSAN CHEMICAL CORPORATION, priority 2014, dated 2021).

Key:
Format in all cases: in vivo
soybean [1] = experiment: Test Example 5: effect on crop by foliage application, plastic box (symbol d); conditions: 320 g/ha, 3 weeks after application
Method in brief: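 Greenhouse culture at 25° C. to 30° C. followed spot-like sowing into sterilized diluvial soil, with seed covered by roughly 1.5 cm of soil.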

Veronica persica = experiment: Test Example 4: herbicidal effect by soil treatment (symbol R); conditions: for R: Veronica persica, herbicidal effect grade: 320 g/ha
Method in brief: (§1)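 Seeds were sown in sterilized diluvial soil, covered with about 1.5 cm of soil, and the soil surface was sprayed with a water-diluted emulsion of the compound at a predetermined rate. Plants grew in a greenhouse at 25° C. to 30° C.; effects were scored visually 3 weeks after application.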

Abutilon theophrasti = experiment: Test Example 5: herbicidal effect by foliage application, plastic box (symbol M); conditions: 320 g/ha, 3 weeks after application
Method in brief: (§2)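 Effect is rated 3 weeks after a foliar spray of water-diluted emulsion concentrate at a predetermined herbicide amount. Plants had grown 14 days in a 25° C. to 30° C. greenhouse from seed in sterilized diluvial soil.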

[2] = test system: Echinochloa crus-galli var. crus-galli; experiment: Test Example 5: herbicidal effect by foliage application, plastic box (symbol H); conditions: 320 g/ha, 3 weeks after application
Method in brief: as §2

Alopecurus myosuroides = experiment: Test Example 4: herbicidal effect by soil treatment (symbol J); conditions: for J: Alopecurus myosuroides, herbicidal effect grade: 320 g/ha
Method in brief: as §1

Cyperus difformis = experiment: Test Example 3: herbicidal effect by foliage application, Wagner pot (symbol E); conditions: application herbicide amount 320 g/ha
Method in brief: (§3)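 Scoring took place 3 weeks after application, using fixed criteria. Plants had been raised from seed for 14 days at 25 to 30 °C in submerged alluvial soil before a diluted emulsion of the test compound was sprayed uniformly on the leaves.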

Apera spica-venti [3] = experiment: Test Example 5: herbicidal effect by foliage application, plastic box (symbol L); conditions: 320 g/ha, 3 weeks after application
Method in brief: as §2

Stellaria media = experiment: Test Example 4: herbicidal effect by soil treatment (symbol P); conditions: for P: Stellaria media, herbicidal effect grade: 320 g/ha
Method in brief: as §1

transplanted rice plant = experiment: Test Example 1: effect on crop, application before weed generation in submerged conditions (symbol a); conditions: application herbicide amount 320 g/ha
Method in brief: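 Alluvial soil pots flooded to 4 cm water, sown with Echinochloa oryzacola, Scirpus juncoides and Monochoria vaginalis, then transplanted with 2.5 leaf stage rice seedlings; pre-emergence application. Greenhouse 25° C. to 30° C.; scored 0–5 by herbicidal ratio 3 weeks after application.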

[4] = test system: Echinochloa crus-galli var. crus-galli; experiment: Test Example 3: herbicidal effect by foliage application, Wagner pot (symbol H); conditions: application herbicide amount 320 g/ha
Method in brief: as §3

Setaria viridis = experiment: Test Example 5: herbicidal effect by foliage application, plastic box (symbol G); conditions: 320 g/ha, 3 weeks after application
Method in brief: as §2

Leptochloa chinensis = experiment: Test Example 3: herbicidal effect by foliage application, Wagner pot (symbol D); conditions: application herbicide amount 320 g/ha
Method in brief: as §3

soybean [5] = experiment: Test Example 4: effect on crop by soil treatment (symbol d); conditions: for d: soybean, effect grade on crop: 320 g/ha
Method in brief: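 Grown at 25° C. to 30° C. in a greenhouse, the crops came from seed sown spot-wise in sterilized diluvial soil under roughly 1.5 cm of covering soil.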

Amaranthus retroflexus = experiment: Test Example 4: herbicidal effect by soil treatment (symbol N); conditions: for N: Amaranthus retroflexus, herbicidal effect grade: 320 g/ha
Method in brief: as §1

Apera spica-venti [6] = experiment: Test Example 4: herbicidal effect by soil treatment (symbol L); conditions: for L: Apera spica-venti, herbicidal effect grade: 320 g/ha
Method in brief: as §1

[7] = application herbicide amount 320 g/ha

| Compound | d: soybean, effect on crop (criteria 0-5) (soybean [1]) | R: Veronica persica, herbicidal effect grade (Veronica persica) | M: Abutilon theophrasti, herbicidal effect (criteria 0-5) (Abutilon theophrasti) | H: Echinochloa crus-galli var. crus-galli, herbicidal effect (criteria 0-5) [2] | J: Alopecurus myosuroides, herbicidal effect grade (Alopecurus myosuroides) | herbicidal effect on E, grade 0-5 (Cyperus difformis) | L: Apera spica-venti, herbicidal effect (criteria 0-5) (Apera spica-venti [3]) | P: Stellaria media, herbicidal effect grade (Stellaria media) | Effect grade on crop, a: transplanted rice plant (transplanted rice plant) | herbicidal effect on H (Echinochloa crus-galli var. crus-galli), grade 0-5 [4] | G: Setaria viridis, herbicidal effect (criteria 0-5) (Setaria viridis) | herbicidal effect on D (Leptochloa chinensis), grade 0-5 (Leptochloa chinensis) | d: soybean, effect grade on crop (soybean [5]) | N: Amaranthus retroflexus, herbicidal effect grade (Amaranthus retroflexus) | L: Apera spica-venti, herbicidal effect grade (Apera spica-venti [6]) | also measured |
| --- | --- | --- | --- | --- | --- | --- | --- | --- | --- | --- | --- | --- | --- | --- | --- | --- |
| CON=C(C)CC1CC(OC(=O)c2cc(C)on2)=C(c2c(C)cc(C)cc2C)C1=O (stereo not drawn) [1-100] | 3 (Herbicidal ratio of 40% or higher and lower than 70%) | 1 (Herbicidal ratio of 5% or higher and lower than 20%) | 4 (Herbicidal ratio of 70% or higher and lower than 90%) | 5 (Herbicidal ratio of 90% or more (almost completely withered)) | 5 (Herbicidal ratio of 90% or more (almost completely withered)) | 5 (Herbicidal ratio of 90% or more (almost completely withered)) | 5 (Herbicidal ratio of 90% or more (almost completely withered)) | 0 (Herbicidal ratio of 5% or lower (almost no effect)) | 5 (Herbicidal ratio of 90% or more (almost completely withered)) | 5 (Herbicidal ratio of 90% or more (almost completely withered)) | 5 (Herbicidal ratio of 90% or more (almost completely withered)) | 5 (Herbicidal ratio of 90% or more (almost completely withered)) | 2 (Herbicidal ratio of 20% or higher and lower than 40%) | 2 (Herbicidal ratio of 20% or higher and lower than 40%) | 5 (Herbicidal ratio of 90% or more (almost completely withered)) | – |
| CCCON=C(C)CC1CC(O)=C(c2c(C)cc(C)cc2C)C1=O (stereo not drawn) [1-123] | 2 (Herbicidal ratio of 20% or higher and lower than 40%) | 0 (Herbicidal ratio of 5% or lower (almost no effect)) | 4 (Herbicidal ratio of 70% or higher and lower than 90%) | 5 (Herbicidal ratio of 90% or more (almost completely withered)) | 5 (Herbicidal ratio of 90% or more (almost completely withered)) | 4 (Herbicidal ratio of 70% or higher and lower than 90%) | 5 (Herbicidal ratio of 90% or more (almost completely withered)) | 0 (Herbicidal ratio of 5% or lower (almost no effect)) | 5 (Herbicidal ratio of 90% or more (almost completely withered)) | 5 (Herbicidal ratio of 90% or more (almost completely withered)) | 5 (Herbicidal ratio of 90% or more (almost completely withered)) | 5 (Herbicidal ratio of 90% or more (almost completely withered)) | 0 (Herbicidal ratio of 5% or lower (almost no effect)) | 0 (Herbicidal ratio of 5% or lower (almost no effect)) | 5 (Herbicidal ratio of 90% or more (almost completely withered)) | – |
| CC(CC1CC(O)=C(c2c(C)cc(C)cc2C)C1=O)=NOCc1cccc(Cl)c1 (stereo not drawn) [1-114] | 0 (Herbicidal ratio of 5% or lower (almost no effect)) | 0 (Herbicidal ratio of 5% or lower (almost no effect)) | 1 (Herbicidal ratio of 5% or higher and lower than 20%) | 5 (Herbicidal ratio of 90% or more (almost completely withered)) | 4 (Herbicidal ratio of 70% or higher and lower than 90%) | 2 (Herbicidal ratio of 20% or higher and lower than 40%) | 5 (Herbicidal ratio of 90% or more (almost completely withered)) | 0 (Herbicidal ratio of 5% or lower (almost no effect)) | 5 (Herbicidal ratio of 90% or more (almost completely withered)) | 5 (Herbicidal ratio of 90% or more (almost completely withered)) | 5 (Herbicidal ratio of 90% or more (almost completely withered)) | 5 (Herbicidal ratio of 90% or more (almost completely withered)) | 0 (Herbicidal ratio of 5% or lower (almost no effect)) | 0 (Herbicidal ratio of 5% or lower (almost no effect)) | 5 (Herbicidal ratio of 90% or more (almost completely withered)) | – |
| CC(CC1CC(OC(=O)N2CCOCC2)=C(c2c(C)cc(-c3ccc(Cl)cc3)cc2C)C1=O)=NOCC(F)(F)F (mixture of isomers) [9-025] | – | – | – | – | – | – | – | – | – | – | – | – | – | – | – | d: soybean, effect on crop grade (soybean [1]): 0 (Herbicidal ratio of 5% or lower (almost no effect)); Herbicidal effect grade, R: Veronica persica (Veronica persica; [7]): 0 (Herbicidal ratio of 5% or lower (almost no effect)); M: Abutilon theophrasti, herbicidal effect grade (Abutilon theophrasti): 0 (Herbicidal ratio of 5% or lower (almost no effect)); H: Echinochloa crus-galli var. crus-galli, herbicidal effect grade [2]: 1 (Herbicidal ratio of 5% or higher and lower than 20%); Herbicidal effect grade, J: Alopecurus myosuroides (Alopecurus myosuroides; [7]): 0 (Herbicidal ratio of 5% or lower (almost no effect)); E herbicidal effect grade (Cyperus difformis; Table 24): 0 (Herbicidal ratio of 5% or lower (almost no effect)); L: Apera spica-venti, herbicidal effect grade (Apera spica-venti [3]): 0 (Herbicidal ratio of 5% or lower (almost no effect)); Herbicidal effect grade, P: Stellaria media (Stellaria media; [7]): 0 (Herbicidal ratio of 5% or lower (almost no effect)); a (transplanted rice plant) effect on crop grade (transplanted rice plant): 0 (Herbicidal ratio of 5% or lower (almost no effect)); H (Echinochloa crus-galli var. crus-galli) herbicidal effect grade ([4]; Table 24): 0 (Herbicidal ratio of 5% or lower (almost no effect)); G: Setaria viridis, herbicidal effect grade (Setaria viridis): 4 (Herbicidal ratio of 70% or higher and lower than 90%); D (Leptochloa chinensis) herbicidal effect grade (Leptochloa chinensis; Table 24): 5 (Herbicidal ratio of 90% or more (almost completely withered)); Effect on crop grade, d: soybean (soybean [5]; [7]): 0 (Herbicidal ratio of 5% or lower (almost no effect)); Herbicidal effect grade, N: Amaranthus retroflexus (Amaranthus retroflexus; [7]): 0 (Herbicidal ratio of 5% or lower (almost no effect)); Herbicidal effect grade, L: Apera spica-venti (Apera spica-venti [6]; [7]): 0 (Herbicidal ratio of 5% or lower (almost no effect)) |
| CON=C(C)CC1CC(OC(=O)N2CCOCC2)=C(c2c(C)cc(C)cc2C)C1=O (stereo not drawn) [1-104] | 1 (Herbicidal ratio of 5% or higher and lower than 20%) | 0 (Herbicidal ratio of 5% or lower (almost no effect)) | 3 (Herbicidal ratio of 40% or higher and lower than 70%) | 5 (Herbicidal ratio of 90% or more (almost completely withered)) | 5 (Herbicidal ratio of 90% or more (almost completely withered)) | 5 (Herbicidal ratio of 90% or more (almost completely withered)) | 5 (Herbicidal ratio of 90% or more (almost completely withered)) | 0 (Herbicidal ratio of 5% or lower (almost no effect)) | 3 (Herbicidal ratio of 40% or higher and lower than 70%) | 5 (Herbicidal ratio of 90% or more (almost completely withered)) | 5 (Herbicidal ratio of 90% or more (almost completely withered)) | 5 (Herbicidal ratio of 90% or more (almost completely withered)) | 0 (Herbicidal ratio of 5% or lower (almost no effect)) | 0 (Herbicidal ratio of 5% or lower (almost no effect)) | 5 (Herbicidal ratio of 90% or more (almost completely withered)) | – |
